These results are taken from patent US11331299B2, “Medicinal use of serrulatane diterpenes” (The University of Sydney, priority 2016, dated 2022).

pIC50: −log10 of the molar value. Like-named read-outs stand apart in the source and are kept apart here.

One experiment has as its target USP 16 (h) (Homo sapiens, UniProt Q9Y5T5). The experiment in a line: Epigenetic enzyme assay, Ubiquitin modifying enzymes. It is filed as biochemical. The settings on record: 10 μM; read-out: % Inhibition of Control Values.
For a further experiment, the target named is T1, EHMT1 (h) (Homo sapiens, UniProt Q9H9B1).
T1 sequence (Q9H9B1 1-1298): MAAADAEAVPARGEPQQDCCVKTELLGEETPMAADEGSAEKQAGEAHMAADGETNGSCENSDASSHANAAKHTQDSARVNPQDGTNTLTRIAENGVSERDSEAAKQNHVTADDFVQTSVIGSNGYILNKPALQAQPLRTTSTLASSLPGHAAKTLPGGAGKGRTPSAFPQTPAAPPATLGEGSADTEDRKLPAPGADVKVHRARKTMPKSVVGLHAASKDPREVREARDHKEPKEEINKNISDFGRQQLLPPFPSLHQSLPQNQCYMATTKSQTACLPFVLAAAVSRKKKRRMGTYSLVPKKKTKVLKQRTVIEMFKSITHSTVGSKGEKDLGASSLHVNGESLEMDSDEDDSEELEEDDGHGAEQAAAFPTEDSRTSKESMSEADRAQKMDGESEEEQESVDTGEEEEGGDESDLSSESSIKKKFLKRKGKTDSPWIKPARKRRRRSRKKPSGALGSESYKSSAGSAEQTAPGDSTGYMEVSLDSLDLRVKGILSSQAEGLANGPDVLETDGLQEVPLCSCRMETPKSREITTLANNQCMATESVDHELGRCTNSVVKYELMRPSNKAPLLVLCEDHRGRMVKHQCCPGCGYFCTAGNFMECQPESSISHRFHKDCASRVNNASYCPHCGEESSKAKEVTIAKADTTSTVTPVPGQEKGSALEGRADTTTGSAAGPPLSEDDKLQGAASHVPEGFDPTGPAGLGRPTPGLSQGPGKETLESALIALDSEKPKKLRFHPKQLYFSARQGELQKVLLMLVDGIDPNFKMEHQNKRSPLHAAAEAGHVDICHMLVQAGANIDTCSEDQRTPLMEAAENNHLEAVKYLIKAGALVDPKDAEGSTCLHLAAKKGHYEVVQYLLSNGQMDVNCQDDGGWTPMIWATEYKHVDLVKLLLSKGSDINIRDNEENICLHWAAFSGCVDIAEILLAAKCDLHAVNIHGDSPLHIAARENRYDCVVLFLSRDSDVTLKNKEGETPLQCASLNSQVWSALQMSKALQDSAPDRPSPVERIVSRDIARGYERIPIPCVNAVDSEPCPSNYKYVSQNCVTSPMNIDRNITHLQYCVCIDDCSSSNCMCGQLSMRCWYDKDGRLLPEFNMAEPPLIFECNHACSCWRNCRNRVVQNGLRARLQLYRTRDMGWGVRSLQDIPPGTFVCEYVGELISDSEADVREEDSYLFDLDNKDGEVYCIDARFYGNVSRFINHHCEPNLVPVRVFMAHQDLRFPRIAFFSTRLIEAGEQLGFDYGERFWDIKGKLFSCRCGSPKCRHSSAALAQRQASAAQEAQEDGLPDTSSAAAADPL
The experiment in a line: Epigenetic enzyme assay, Methyltransferases (MTs). The class given is biochemical. Particulars: for inhibition at 10 µM: read-out: % Inhibition of Control Values.

A further experiment has as its target T2, JMJD2C (h) (Homo sapiens, UniProt Q9H3R0).
T2 sequence (Q9H3R0 1-1056): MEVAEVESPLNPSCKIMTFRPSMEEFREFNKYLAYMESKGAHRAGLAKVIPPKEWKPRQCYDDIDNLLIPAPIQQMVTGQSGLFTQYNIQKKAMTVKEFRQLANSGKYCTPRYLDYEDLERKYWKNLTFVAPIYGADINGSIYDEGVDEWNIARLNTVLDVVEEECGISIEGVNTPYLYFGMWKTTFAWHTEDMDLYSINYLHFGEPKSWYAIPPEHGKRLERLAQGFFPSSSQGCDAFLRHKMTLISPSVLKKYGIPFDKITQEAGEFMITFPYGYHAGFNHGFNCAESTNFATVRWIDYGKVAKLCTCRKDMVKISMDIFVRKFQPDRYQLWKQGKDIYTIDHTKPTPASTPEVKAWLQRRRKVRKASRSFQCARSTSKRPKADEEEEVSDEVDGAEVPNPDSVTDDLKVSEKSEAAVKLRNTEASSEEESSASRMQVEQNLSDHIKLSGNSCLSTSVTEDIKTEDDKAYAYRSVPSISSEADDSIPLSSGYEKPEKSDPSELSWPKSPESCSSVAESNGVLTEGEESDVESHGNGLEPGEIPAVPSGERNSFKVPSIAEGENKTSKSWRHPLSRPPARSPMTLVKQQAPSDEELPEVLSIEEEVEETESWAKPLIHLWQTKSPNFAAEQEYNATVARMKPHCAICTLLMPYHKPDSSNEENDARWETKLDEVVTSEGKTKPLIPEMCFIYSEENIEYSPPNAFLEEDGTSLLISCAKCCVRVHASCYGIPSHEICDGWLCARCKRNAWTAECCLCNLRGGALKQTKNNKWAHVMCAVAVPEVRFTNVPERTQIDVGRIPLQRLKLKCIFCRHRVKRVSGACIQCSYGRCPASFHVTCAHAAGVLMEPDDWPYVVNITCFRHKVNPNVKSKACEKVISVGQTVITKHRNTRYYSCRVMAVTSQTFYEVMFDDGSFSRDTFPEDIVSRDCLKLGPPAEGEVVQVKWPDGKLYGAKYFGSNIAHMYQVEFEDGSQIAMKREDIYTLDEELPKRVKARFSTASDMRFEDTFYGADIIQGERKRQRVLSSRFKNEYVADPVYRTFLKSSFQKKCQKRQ
The experiment in a line: Epigenetic enzyme assay, Demethylases (KDMs). The class given is biochemical. Particulars: read-out: % Inhibition of Control Values.

For the next experiment, the target named is HDAC4 (h) (Homo sapiens, UniProt P56524). The experiment in a line: Epigenetic enzyme assay, Histone deacetylase (HDACs). It is filed as biochemical. The settings on record: read-out: % Inhibition of Control Values.
Sequence of HDAC4 (h) (P56524 whole entry): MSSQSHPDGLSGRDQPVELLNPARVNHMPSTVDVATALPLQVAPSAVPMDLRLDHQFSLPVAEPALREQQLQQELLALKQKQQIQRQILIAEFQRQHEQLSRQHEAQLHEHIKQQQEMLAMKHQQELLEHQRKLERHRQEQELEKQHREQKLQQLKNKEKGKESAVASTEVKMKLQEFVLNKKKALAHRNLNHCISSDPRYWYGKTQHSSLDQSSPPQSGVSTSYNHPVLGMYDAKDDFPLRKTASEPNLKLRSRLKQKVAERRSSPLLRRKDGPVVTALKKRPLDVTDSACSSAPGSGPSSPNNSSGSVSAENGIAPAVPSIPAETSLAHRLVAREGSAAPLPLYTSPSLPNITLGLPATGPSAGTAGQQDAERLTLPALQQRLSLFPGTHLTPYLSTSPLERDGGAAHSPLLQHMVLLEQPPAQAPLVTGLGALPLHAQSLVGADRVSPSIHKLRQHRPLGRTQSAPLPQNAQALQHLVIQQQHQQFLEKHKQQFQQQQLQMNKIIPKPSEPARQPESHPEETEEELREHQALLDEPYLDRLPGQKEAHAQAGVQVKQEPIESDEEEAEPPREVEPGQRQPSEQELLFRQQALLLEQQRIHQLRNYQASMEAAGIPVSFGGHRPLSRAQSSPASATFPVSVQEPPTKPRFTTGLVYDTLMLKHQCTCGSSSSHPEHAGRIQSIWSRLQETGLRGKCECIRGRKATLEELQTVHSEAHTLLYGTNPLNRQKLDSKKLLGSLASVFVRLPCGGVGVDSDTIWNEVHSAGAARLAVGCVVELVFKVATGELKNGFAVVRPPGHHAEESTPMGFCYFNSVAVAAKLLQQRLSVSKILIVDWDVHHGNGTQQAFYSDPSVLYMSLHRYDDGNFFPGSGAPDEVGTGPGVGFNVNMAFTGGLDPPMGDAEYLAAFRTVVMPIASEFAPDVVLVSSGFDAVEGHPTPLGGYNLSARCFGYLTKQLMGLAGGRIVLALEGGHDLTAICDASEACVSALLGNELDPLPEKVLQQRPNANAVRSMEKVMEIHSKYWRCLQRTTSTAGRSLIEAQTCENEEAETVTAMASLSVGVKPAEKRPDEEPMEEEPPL
Another experiment addresses T3, Histamine H3 (Homo sapiens, UniProt Q9Y5N1).
T3 construct: expressed in transfected cells; host or cells: Chem-1 cells
The experiment in a line: Histamine H3 radio ligand binding. On the procedure: (§1) The in vitro pharmacological studies were conducted by Eurofins PanLab (Taiwan) using the parameters shown in Table 13 with respect to appropriate literature references.

Another experiment has as its target T4, Thioredoxin Reductase (Escherichia coli, UniProt P0A9P4).
T4 construct: host or cells: E. coli
The experiment in a line: Thioredoxin Reductase. The class given is biochemical, E. coli. On the procedure:
as §1

The mark [1] stands for this setting: assay year 2015, read-out: % Control Response.
Where [2] appears, read: assay year 2014, read-out: % Control Response.

T4 sequence (P0A9P4 2-321): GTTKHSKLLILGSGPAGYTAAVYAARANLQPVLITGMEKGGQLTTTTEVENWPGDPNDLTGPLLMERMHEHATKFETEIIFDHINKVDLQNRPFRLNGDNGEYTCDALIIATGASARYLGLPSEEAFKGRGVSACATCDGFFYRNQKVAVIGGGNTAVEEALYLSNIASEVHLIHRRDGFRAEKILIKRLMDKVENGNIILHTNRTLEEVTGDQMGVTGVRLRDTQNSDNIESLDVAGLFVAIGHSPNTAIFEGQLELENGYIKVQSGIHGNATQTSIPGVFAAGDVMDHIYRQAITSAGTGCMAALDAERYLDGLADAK
Sequence of USP 16 (h) (Q9Y5T5 whole entry): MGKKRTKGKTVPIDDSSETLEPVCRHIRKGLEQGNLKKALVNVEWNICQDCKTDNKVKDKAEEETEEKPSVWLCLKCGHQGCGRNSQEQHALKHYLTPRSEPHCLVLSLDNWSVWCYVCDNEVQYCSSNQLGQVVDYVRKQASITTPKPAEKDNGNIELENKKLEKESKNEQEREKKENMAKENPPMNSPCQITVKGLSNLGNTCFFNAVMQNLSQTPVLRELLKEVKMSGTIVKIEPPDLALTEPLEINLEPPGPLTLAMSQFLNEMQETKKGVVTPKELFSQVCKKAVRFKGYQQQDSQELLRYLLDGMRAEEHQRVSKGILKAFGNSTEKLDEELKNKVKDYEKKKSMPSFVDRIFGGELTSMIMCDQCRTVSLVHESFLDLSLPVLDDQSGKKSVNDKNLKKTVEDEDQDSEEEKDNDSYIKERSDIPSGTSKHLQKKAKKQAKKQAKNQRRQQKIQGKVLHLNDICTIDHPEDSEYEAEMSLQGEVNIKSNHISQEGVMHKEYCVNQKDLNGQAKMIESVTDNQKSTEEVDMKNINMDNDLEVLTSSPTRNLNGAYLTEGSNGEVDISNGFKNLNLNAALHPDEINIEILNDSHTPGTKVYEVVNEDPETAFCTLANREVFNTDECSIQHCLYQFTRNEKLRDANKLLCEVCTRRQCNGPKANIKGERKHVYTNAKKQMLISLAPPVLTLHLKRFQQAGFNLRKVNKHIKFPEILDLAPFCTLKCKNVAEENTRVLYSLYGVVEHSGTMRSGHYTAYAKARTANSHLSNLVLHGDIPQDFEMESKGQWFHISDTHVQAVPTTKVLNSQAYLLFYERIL
T3 sequence (Q9Y5N1 whole entry): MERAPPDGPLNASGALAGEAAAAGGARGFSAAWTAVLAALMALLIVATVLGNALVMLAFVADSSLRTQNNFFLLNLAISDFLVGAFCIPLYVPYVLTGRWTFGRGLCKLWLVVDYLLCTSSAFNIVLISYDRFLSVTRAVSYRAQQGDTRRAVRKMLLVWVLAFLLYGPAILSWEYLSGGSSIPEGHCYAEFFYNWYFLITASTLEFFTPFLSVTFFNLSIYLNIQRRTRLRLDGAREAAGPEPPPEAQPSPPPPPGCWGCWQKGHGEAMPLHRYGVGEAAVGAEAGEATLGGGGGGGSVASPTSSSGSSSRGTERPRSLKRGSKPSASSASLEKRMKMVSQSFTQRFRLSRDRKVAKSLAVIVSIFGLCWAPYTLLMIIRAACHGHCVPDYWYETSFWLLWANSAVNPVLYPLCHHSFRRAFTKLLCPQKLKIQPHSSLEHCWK

`CC(C)=CCC[C@@H]1COc2c(C)cc(O)c3c2[C@H]1CC[C@H]3C` [Compound 3, 5,18-epoxy-8-hydroxyserrulat-14-ene]: the inhibition at 10 µM on USP 16 (h) is 12%; on EHMT1 (h), 63%; on JMJD2C (h), 8%; at HDAC4 (h), -11%. Besides, the figures for the remaining activity at 10 µM at Histamine H3 (setting [1]) and at Thioredoxin Reductase (setting [1]) were 1% and 9%, respectively.

Regarding `CC(C)=CCC[C@@H]1C(O)Oc2c(C)cc(O)c3c2[C@H]1CC[C@H]3C` (stereo partly drawn) [Compound 2, 5,18-epoxyserrulat-14-en-8,18-diol], the inhibition at 10 µM on USP 16 (h) was 14%; at EHMT1 (h), 9%; at JMJD2C (h), 2%; at HDAC4 (h), -20%. Besides, the remaining activity at 10 µM on Histamine H3 (setting [2]) is -5%; at Histamine H3 (setting [1]), 24%; on Thioredoxin Reductase (setting [2]) it was 6%; at Thioredoxin Reductase (setting [1]), 12%.

Regarding `Nc1ncnc2c1ncn2[C@@H]1O[C@H](CSCC[C@H](N)C(=O)O)[C@@H](O)[C@H]1O` [SAH], the negative-log IC50 (pIC50) on EHMT1 (h) (read-out: Reference IC50) was 6.74.

With `CC(C)=CCC[C@H](CO)[C@@H]1CC[C@@H](C)c2c1cc(C)c(O)c2O` [Compound 1, 7,8,18-trihydroxyserrulat-14-ene], the inhibition at 10 µM on USP 16 (h) is 11%; at EHMT1 (h), 13%; on JMJD2C (h), 35%; on HDAC4 (h), -73%. Also, the remaining activity at 10 µM was -10% at Histamine H3 (setting [2]), 12% on Histamine H3 (setting [1]), 71% at Thioredoxin Reductase (setting [2]) and 35% on Thioredoxin Reductase (setting [1]). The “% Control Response” value at Thioredoxin Reductase (10 μM, assay year 2014) was “inhibited the activity”.

Usually inhibition stands for the change of the read-out against control, counted positive when it falls. For orientation: pIC50 means −log10 of the IC50, conventionally taken in molar units.
